Test results: US5185330A, “Penam derivatives and salts thereof, and antibacterial agent comprising the same” (Toyama Chemical Co., Ltd., priority 1989, dated 1993)
Values after ≈ are worked out from the molar mass of the structure shown. Where two headings read alike, the source gives them in different places.

Assays:
E. coli TK-3 = assay: Antibacterial activity (MIC, agar dilution) against E. coli TK-3*; assay type: cell-based; conditions: Escherichia coli
Protocol: (§1) According to Chemotherapy, vol. 29, No. 1, pp. 76-79 (1981), bacterium was cultured in peptone broth manufactured by Eiken Kagaku K.K. at 37° C. for 20 hours to prepare a bacterial solution of 10^8 cells/ml, and one loopful of the bacterial solution was inoculated into Heart Infusion agar medium (manufactured by Eiken Kagaku K.K.) containing a drug, cultured at 37° C. for 20 hours, after which growth of bacterium was observed. The minimum concentration at which the growth of bacterium was prevented was indicated as MIC (μg/ml).
(§2) *means that β-lactamaseproducing bacteria.

S. marcescens W-8 = assay: Antibacterial activity (MIC, agar dilution) against S. marcescens W-8*; assay type: cell-based; conditions: Serratia marcescens, W8; S. marcescens W-8* (β-lactamase-producing bacteria); Heart Infusion agar, 37° C., 20 hours, one loopful of 10^8 cells/ml; read-out: MIC
Protocol: as §1, §2

[1] = TK3, E. coli TK-3* (β-lactamase-producing bacteria), Heart Infusion agar, 37° C., 20 hours, one loopful of 10^8 cells/ml, read-out: MIC

## NC(=O)NN=CC=NN1CCN([C@]2(C(=O)O)CN3C(=O)[C@@H](NC(=O)[C@@H](c4cc(O)c(O)cc4Cl)S(=O)(=O)O)[C@H]3S2)C1=O [compound 43]
E. coli TK-3; [1]
  MIC: 0.2 µg/mL (≈ 0.308 µM)
S. marcescens W-8
  MIC: 0.2 µg/mL (≈ 0.308 µM)

## O=C(O)C(C(=O)N[C@@H]1C(=O)N2C[C@@](C(=O)O)(N3CCN(N=C4SCCS4)C3=O)S[C@H]12)c1ccc(O)c(O)c1 (stereo partly shown) [compound 23]
E. coli TK-3; [1]
  MIC: 3.13 µg/mL (≈ 5.36 µM)
S. marcescens W-8
  MIC: 3.13 µg/mL (≈ 5.36 µM)

## C=CC=NN1CCN([C@]2(C(=O)O)CN3C(=O)[C@@H](NC(=O)C(C(=O)O)c4ccc(O)cc4)[C@H]3S2)C1=O (stereo partly shown) [compound 18]
E. coli TK-3; TK3, 20 h
  MIC: ≤ 0.05 µg/mL
S. marcescens W-8
  MIC: 0.1 µg/mL (≈ 0.199 µM)

## NC(=O)NN1CCN([C@]2(C(=O)O)CN3C(=O)[C@@H](NC(=O)C(c4ccc(N)cc4)S(=O)(=O)O)[C@H]3S2)C1=O (stereo partly shown) [compound 30]
E. coli TK-3; [1]
  MIC: 6.25 µg/mL (≈ 11.5 µM)
S. marcescens W-8
  MIC: 1.56 µg/mL (≈ 2.87 µM)

## NC(=O)Nc1ccc([C@H](C(=O)N[C@@H]2C(=O)N3C[C@@](C(=O)O)(N4CCN(NC(N)=O)C4=O)S[C@H]23)S(=O)(=O)O)c(Cl)c1 [compound 36]
E. coli TK-3; [1]
  MIC: 12.5 µg/mL (≈ 20.1 µM)
S. marcescens W-8
  MIC: 1.56 µg/mL (≈ 2.51 µM)
